Assays:
HDF [1] = assay: flow cytometry (FACS, propidium iodide) of cell cycle progression; assay type: cell-based, human; conditions: senescent cell
Experimental: FIG. 21 represents the results of FACS analysis evaluating the effect of LPA on cell cycle progression in senescent cells in connection with the affection of cAMP control. Con denotes control group and ACI is adenylyl cyclase inhibitor.
In addition, the treated cells were analyzed using flow cytometry. The treated cells were harvested and treated with […] of 0.1% trypsin for 30 sec, after which centrifugation was performed at 4° C. for 10 min at 1000 rpm. Then, the cell concentration was adjusted to 1-3×10^6 cells/ml in sample buffer. The sample buffer was prepared in such a manner that 1 g glucose in 1 L PBS without Ca^2+ and Mg^2+ was filtered through a 0.22 μm filter. The solutions containing cells was centrifuged at 4° C. for 10 min at 1000 rpm and ice-cold 70% ethanol was added dropwise to pellet. The sample tube was capped, allowed to fix in the ethanol overnight at 4° C., vortexed briefly, and then centrifuged for 5 min at 3000 rpm. Thereafter, ethanol was discarded and PI (propidium iodide) staining solution (0.5 ml 20× propidium iodide stock solution (50 μg/ml final), 1000 kunits RNase A (100 U/ml final) and 10 ml sample buffer) was added into the sample tube. Finally, the sample was analyzed within 24 hr in a […] (FACS Calibur, Beckton-Dikinson).

HDF [2] = assay: viable cell counting (Trypan blue) with adenylyl cyclase inhibitor and/or LPA; assay type: cell-based, human; conditions: senescent cell culture; LPA plus adenylyl cyclase inhibitor (SQ22536 300 μM)
Experimental: O and Y denote old and young cell, respectively.
Young or old HDF (passage 8-11) were treated with LPA (30 μM), dbcAMP (cAMP analog, 1 mM, Sigma), adenylyl cyclase inhibitor, SQ22536 (300 μM, Calbiochem) and their combinations for 30-60 min at 37° C. The cells treated were stained with Trypan blue (GiBco/BRL) for 10 min at 37° C. and only cells without blue color were then counted under hemacytometer.

[3] = tested on: human diploid fibroblasts; assay: growth factor-stimulated signaling events in human diploid fibroblasts; assay type: cell-based
Experimental: Foreskin fibroblasts were isolated as described by Boyce and Ham (1983). Cells were cultured in Dulbecco's modified Eagle's medium containing 10% fetal bovine serum and antibiotics. The primary culture contained smaller and more closely packed cells during the early stage of the culture. Cells with less than 10 passage were often considered as presenescent cells. As the cells were passaged, they became larger and they have a slower growth rate at passage 10-20. Cells from over 27 passages were completely growth-arrested and developed characteristic appearance designated previously as replicative senescence (Yeo et al., 2000a and b). In order to confirm that cells were senescent, we either examined the activity of beta-galactosidase or stained with X-gal, a membrane permeable substrate of the enzyme, which produces a blue insoluble product inside of the cells. The number of cells stained with X-gal increased with age and most of cells from passage 27-28 were stained. Cultures of over 23-28 passages have also shown the cessation of cell growth and senescence-like morphological changes, but only 70-80% of cells were stained with X-gal. These were termed “near-senescent”. Although the near-senescent cultures were not completely homogeneous, we compared the changes in these cultures to those in presenescent cultures of passage 6-10. In order to determine the growth factor-stimulated signaling events, cells were grown for 1-2 days to 60-70% sub-confluency in the culture medium, and then serum-starved to become quiescent by incubating with serum free medium (SFM) for 2 days. The quiescent cells were treated with various agonists, as described in the figure legends. To label cells, radioactive chemicals were added during the incubation with SFM.
Primary human diploid fibroblasts, isolated from newborn foreskins, were used to study the mechanism of reduced response to growth factor stimulation with aging. These cells were maintained and passaged as described previously (Yeo et al., 2000a). […] Compared to their presenescent counterparts, the senescent and near-senescent cells were larger and grew to lower density, as has been observed in other cell systems. Here the present inventors report upon the differential changes in the signaling events evoked by platelet-derived growth factor (PDGF) and lysophosphatidic acid (LPA). PDGF elicits signaling events over a concentration range of 10-100 ng/ml, whereas LPA stimulates the hydrolysis of phospholipids, Ca^2+ mobilization, and actin polymerization over a concentration range of 0.1-10 μg/ml in human diploid fibroblasts. In order to compare their cellular responses, we treated presenescent and senescent (or near-senescent) cells with PDGF and LPA at a maximally responsive dose of 50 ng/ml and 1 μg/ml, respectively.

[4] = tested on: human diploid fibroblasts; assay: DNA synthesis, [3H]thymidine incorporation; assay type: cell-based; conditions: for increase in [3H]thymidine incorporation: 50-100 ng/ml PDGF
Experimental: FIG. 5 represents reduction of growth factor-induced thymidine incorporation in near-senescent fibroblasts. […] The amount of [^3H]thymidine incorporated into DNA over 4 hrs was measured as described. The data represents an average of 3 counts in cpm. A representative experiment of the three is presented in A. Fold increase over the untreated control was calculated and plotted in B.
FIG. 18 represents changes in LPA-induced thymidine incorporation and cell proliferation in near-senescent fibroblasts versus presenescent fibroblasts. Subconfluent presenescent (passage 8, Pa 8) and near-senescent (passage 24, Pa 24) fibroblasts were serum-starved for 2 days and treated with LPA (1-70 μg/ml) for 16 hrs. The amount of [^3H]thymidine incorporated into DNA over 4 hrs was measured as described. The data represents an average of 3 counts in cpm in each independent experiments. A representative experiment of the three is presented in A. Converted fold increase over the untreated control was calculated and plotted in B.
Quiescent cells were labeled with [^3H]thymidine (0.5 μCi/ml) for 4 hrs and the […] radioactive thymidine was removed by washing with PBS. DNA was precipitated with 10% TCA and lysed in 0.5N NaOH. The radioactivity in neutralized lysates was counted in a liquid scintillation cocktail.

phospholipase D (PLD) = assay: phosphatidylbutanol formation as an indication of phospholipase D activity; assay type: cell-based, human; conditions: passage 24 near-senescent cells vs presenescent; 0.5% 1-butanol, 20 min
Experimental: Subconfluent presenescent (passage 8: Pa 8) and near-senescent (passage 24: Pa 24) cells were serum-starved and labeled with [^3H]myristic acid overnight. […] A representative experiment of three performed in duplicate is presented.
Quiescent cells were labeled overnight with [^3H]myristic acid (1 μCi/ml) and then washed with PBS. Phosphatidylbutanol formation was measured as described by Yeo et al. (1994). Cells were preincubated with 0.5% (v/v) 1-butanol for 15 min and then treated with agonists for 20 min in the presence of 0.5% 1-butanol. Total lipids were extracted and separated by thin layer chromatography. The band of phosphatidylbutanol was scraped off the plates and its radioactivity was counted in a liquid scintillation cocktail.

Phospholipase C (PLC) = conditions: near-senescent cells (passage 23) vs presenescent (passage 6); PDGF 50 ng/ml, LPA 1 μg/ml, 20 min, 20 mM LiCl
[5] = tested on: human diploid fibroblasts; assay: confocal microscopic measurement of actin polymerization (NBD-phallacidin); assay type: cell-based; conditions: PDGF 50 ng/ml, LPA 1 μg/ml
Experimental: FIG. 2 represents differential changes in growth factor-induced actin polymerization in senescent fibroblasts. […] The cells were fixed, permeabilized, and stained with NBD-phallacidin, then photographed.
F-actin was stained as described by Shin et al. (1999). Quiescent cells grown on glass cover slips in multi-well culture plates were treated with agonists for 30 min, and the cells were fixed with 3.7% paraformaldehyde in PBS for 30 min on ice. Following permeabilization with 0.2% Triton X-100 in PBS for 15 min on ice, the cells were stained with […] NBD-phallacidin in PBS for 30 min at RT. The stained cells were washed three times with PBS for 15 min and the cover slip was mounted on a slide glass with Gelvatol, which was prepared by mixing 100 ml of 23% polyvinyl alcohol in PBS with 50 ml glycerol. The cells were then observed under a confocal fluorescence microscope.

[6] = tested on: human diploid fibroblasts; assay: measurement of cytosolic free [Ca2+]i by confocal microscopy (fluo-3-AM); assay type: cell-based; conditions: PDGF 50 ng/ml, LPA 1 μg/ml
Experimental: FIG. 1 represents differential changes in growth factor-stimulated calcium release in senescent fibroblasts. Presenescent (passage 7: A and C) and senescent (passage 27: B and D) fibroblasts were grown on coverslips, serum-starved, and incubated with 4 μM fluo-3-AM in serum-free medium for 40 min. The stained cells were treated with […] of platelet-derived growth factor (A and B) or 1 μg/ml of lysophosphatidic acid (C and D) via a micro-perfusion system for the real-time measurement of signaling molecules, and laser scanning confocal microscopy. The scanned images were analyzed for changes in intracellular Ca^2+ at the single cell level and results expressed as relative fluorescence intensity (RFI).
[Ca^2+]i was measured using a laser scanning confocal microscope, as described by Junn et al. (2000). Quiescent fibroblasts grown on glass cover slips in a 6-well plate were stained with 4 μM of fluo-3-acetoxymethyl ester (fluo-3-AM) in phenol red-free medium without serum for 40 min and washed three times with the serum-free medium. Stained cells on each cover slip were mounted on a perfusion chamber (MPS-1000, Seoul Engineering, Korea), placed under the confocal laser scanning microscope (Carl Zeiss LSM 410), and scanned every 5 sec with a 488 nm excitation argon laser and a 515 nm long pass emission filter. Growth factors were added to the cells using an automatic pumping system (self-designed). All scanned images were analyzed for [Ca ^2+]i changes at the single cell level using “Time Series Program” for a real-time measurement of relative fluorescence intensity (RFI) which is installed in the Carl Zeiss LSM 410 confocal system.

cellular cAMP = assay: measurement of cyclic AMP accumulation (cAMP binding assay); assay type: cell-based, human; conditions: near-senescent HDF (passage 26); 30 μg/ml LPA; 10 μM inhibitor
Experimental: FIG. 9 represents LPA-induced alteration of cellular cAMP content in presenescent and near-senescent fibroblasts. Subconfluent presenescent (passage 8, Pa 8) and near-senescent (passage 24, Pa 24) fibroblasts were serum-starved for 2 days and treated with LPA: A, 1-70 μg/ml LPA for 30 min; B, 30 μg/ml LPA for the indicated times. The level of cAMP in the acid extracts was measured by cAMP binding assay. The data represents an average of triplicate experiments.
Subconfluent near-senescent (passage 26, Pa 26) fibroblasts were serum-starved for 2 days and treated with 30 μg/ml LPA for the indicated times in the absence or presence of 10 μM PKC inhibitor bisindolylmaleiamide (bIM). The level of cAMP in the acid extracts was measured by cAMP binding assay. The data represents an average of triplicate experiments.
Cells grown on a 12 well-plate were serum-starved by incubating with SFM for 2 days. After the cells were equilibrated in the fresh SFM medium for 1 hour, they were treated with LPA as described in the figure. The reaction was terminated by removing the medium and by adding 2.5 M perchloric acid. The acid extract was stored at −20° C. until use. The acid extract was neutralized with 4.2 M KOH and the cAMP content was determined by competitive binding with [^3H]cAMP to the cAMP binding protein, RIα of cAMP-dependent protein kinase, as described by Jang and Juhnn (2001). After the extraction, cells were lyzed with 0.1 N NaOH and analyzed for protein content using the Bradford protein assay reagent. The cAMP content was normalized to the amount of acid-insoluble protein.

[7] = near-senescent cells (passage 24)

Question: For `Nc1ncnc2c1ncn2C1CCCO1` (stereo not shown) [adenylyl cyclase inhibitor], which “number of cells in S phase” value (HDF [1]; adenylyl cyclase inhibitor alone) is on record?
Answer: dramatically increased

Question: What about the “number of cells in S phase” value (HDF [1]; co-treatment of adenylyl cyclase inhibitor with LPA) of the same compound?
Answer: more enhanced

Question: And the viable cell number (HDF [2])?
Answer: dramatically increased

Question: For PDGF, which “concentration range over which signaling events are elicited” value ([3]; human diploid fibroblasts) is on record?
Answer: 10 to 100 ng/mL

Question: What about the maximally responsive dose ([3]; presenescent and senescent (or near-senescent) cells) of the same compound?
Answer: 50 ng/mL

Question: And the “agonist-induced DNA synthesis ([3H]thymidine incorporation) in near-senescent cells vs presenescent” value [4, 7]?
Answer: greatly reduced

Question: What about the “increase in [3H]thymidine incorporation” value [4, 7] of the same compound?
Answer: 1.3 fold

Question: And the “increase in [3H]thymidine incorporation” value ([4]; presenescent cells (passage 8))?
Answer: 7-8 fold

Question: And the “concentration range of very strong agonism for [3H]thymidine incorporation” value ([4]; presenescent fibroblasts)?
Answer: 10 to 100 ng/mL

Question: And the “reduction of PLD activity” value (phospholipase D (PLD))?
Answer: 80%

Question: And the “agonist-stimulated inositol phosphates (IPs) production” value (Phospholipase C (PLC))?
Answer: dramatically reduced

Question: And the “actin polymerization (stress fibers)” value ([5]; presenescent fibroblasts (passage 10))?
Answer: enhanced the formation of stress fibers

Question: And the “agonist-induced actin polymerization in senescent cells” value ([5]; senescent cells (passage 27))?
Answer: almost completely blocked

Question: And the “cytosolic Ca2+ levels” value ([6]; presenescent fibroblasts (passage 7))?
Answer: rapid increase

Question: And the “Ca2+ response in senescent cells relative to presenescent” value ([6]; senescent cells (passage 27))?
Answer: greatly attenuated

Question: With “bisindolylmaleiamide [bis-indolylmaleiamide]” as the compound, how does the “cAMP content in LPA-stimulated cells in presence of PKC inhibitor” value (cellular cAMP) read?
Answer: inhibition of cAMP accumulation

Reference: patent US20060099568A1, “Signals and molecular species involved in senescence” (priority 2002, published 2006)
